PubChem BioAssay AID328 (DTP/NCI, 2004)
Several values for one entry are separate records, joined by “and”; a condition that tells them apart may be missing. Identical values can stand only once. Inconclusive results and toxic doses are left out. How the source made its calls: active means survival T/C of 150% or more; inactive means T/C below 125% in these data.

Tested on: BDF1 mice, P388 leukemia ip, median survival T/C
Assay: NCI In Vivo Anticancer Drug Screen. Data for tumor model P388 Leukemia (intraperitoneal) in B6D2F1 (BDF1) mice
Conditions: endpoint: median survival time, higher = longer survival
Procedure, shortened: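 Antitumour effect was judged in vivo: survival in drug-treated mice, normalised to that of vehicle-dosed controls, gives the reported T/C.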

[1] = dose: 50.0 mg/kg/injection, schedule: Q01DX009 (ip), vehicle: saline with Tween-80
[2] = dose: 100.0 mg/kg/injection, schedule: Q01DX009 (ip), vehicle: saline with Tween-80
[3] = dose: 200.0 mg/kg/injection, schedule: Q01DX009 (ip), vehicle: saline with Tween-80
[4] = dose: 100.0 mg/kg/injection, schedule: Q04DX003 (ip), vehicle: saline with Tween-80
[5] = dose: 200.0 mg/kg/injection, schedule: Q04DX003 (ip), vehicle: saline with Tween-80
[6] = dose: 400.0 mg/kg/injection, schedule: Q04DX003 (ip), vehicle: saline with Tween-80
[7] = dose: 100.0 mg/kg/injection, schedule: Q04DX003 (ip), vehicle: Klucel (hydroxypropylcellulose) (HPC)
[8] = dose: 200.0 mg/kg/injection, schedule: Q04DX003 (ip), vehicle: Klucel (hydroxypropylcellulose) (HPC)

Measured: T/C

CCOCc1ccc(OCc2ccccc2)cc1
inactive: [1] 94 % of control | [2] 108 % of control | [3] 119 % of control

Cc1ccc(C(=O)CCCCl)c(C)c1
inactive: [4] 109 % of control | [5] 109 % of control | [6] 118 % of control

CC(=O)C(=O)C(C)=O
inactive: dose: 100.0 mg/kg/injection, schedule: Q01DX001 (ip), vehicle: Klucel (hydroxypropylcellulose) (HPC) 105 % of control | dose: 200.0 mg/kg/injection, schedule: Q01DX001 (ip), vehicle: Klucel (hydroxypropylcellulose) (HPC) 100 % of control | dose: 400.0 mg/kg/injection, schedule: Q01DX001 (ip), vehicle: Klucel (hydroxypropylcellulose) (HPC) 105 % of control

O=Cc1ccc(N2CCCCC2)cc1
inactive: [7] 91 % of control | [8] 95 % of control

C(=C\C1CC2CCCN2O1)/c1ccccc1 (configuration not stated)
inactive: dose: 25.0 mg/kg/injection, schedule: Q01DX009 (ip), vehicle: saline with Tween-80 100 % of control | [1] 102 % of control and 105 % of control | [2] 100 % of control | [3] 98 % of control and 102 % of control

O=C(Nc1nncs1)c1cccs1
inactive: dose: 50.0 mg/kg/injection, schedule: Q04DX002 (ip), vehicle: saline with Tween-80 109 % of control | dose: 100.0 mg/kg/injection, schedule: Q04DX002 (ip), vehicle: saline with Tween-80 93 % of control
active: dose: 600.0 mg/kg/injection, schedule: Q04DX002 (ip), vehicle: saline with Tween-80 190 % of control

CCN(CC)CCCC(C)Nc1ccnc2cc(Cl)ccc12 (configuration not stated)
inactive: dose: 6.2 mg/kg/injection, schedule: Q01DX010 (ip), vehicle: saline 100 % of control | dose: 12.5 mg/kg/injection, schedule: Q01DX009 (ip), vehicle: saline 113 % of control | dose: 12.5 mg/kg/injection, schedule: Q01DX010 (ip), vehicle: saline 90 % of control | dose: 25.0 mg/kg/injection, schedule: Q01DX009 (ip), vehicle: saline 109 % of control | dose: 25.0 mg/kg/injection, schedule: Q01DX010 (ip), vehicle: saline 95 % of control | dose: 50.0 mg/kg/injection, schedule: Q01DX009 (ip), vehicle: saline 109 % of control | dose: 50.0 mg/kg/injection, schedule: Q01DX010 (ip), vehicle: saline 100 % of control | dose: 75.0 mg/kg/injection, schedule: Q01DX009 (ip), vehicle: saline 104 % of control

Cc1c(/C=C(\C#N)c2ccc([N+](=O)[O-])cc2)c(=O)n(-c2ccccc2)n1C
inactive: dose: 100.0 mg/kg/injection, schedule: Q04DX003 (ip), vehicle: gum acacia 103 % of control | dose: 200.0 mg/kg/injection, schedule: Q04DX003 (ip), vehicle: gum acacia 100 % of control | dose: 400.0 mg/kg/injection, schedule: Q04DX003 (ip), vehicle: gum acacia 100 % of control

CCOc1ccccc1CC(=O)O
inactive: [4] 100 % of control | [5] 100 % of control | [6] 104 % of control

CSC1SCC2C(=O)N(C)C(C(C)C)C(=O)OCC(NC(=O)c3cnc4ccccc4n3)C(=O)NC(C)C(=O)N(C)C1C(=O)N(C)C(C(C)C)C(=O)OCC(NC(=O)c1cnc3ccccc3n1)C(=O)NC(C)C(=O)N2C (configuration not stated)
inactive: dose: 0.4 micrograms/kg/injection, schedule: Q01DX009 (ip), vehicle: saline with Tween-80 86 % of control | dose: 0.9 micrograms/kg/injection, schedule: Q01DX009 (ip), vehicle: saline with Tween-80 89 % of control | dose: 1.9 micrograms/kg/injection, schedule: Q01DX009 (ip), vehicle: saline with Tween-80 112 % of control | dose: 3.8 micrograms/kg/injection, schedule: Q01DX009 (ip), vehicle: saline with Tween-80 96 % of control | dose: 5.0 micrograms/kg/injection, schedule: Q01DX010 (ip), vehicle: saline 118 % of control | dose: 20.0 micrograms/kg/injection, schedule: Q01DX010 (ip), vehicle: saline 95 % of control
active: dose: 30.0 micrograms/kg/injection, schedule: Q01DX009 (ip), vehicle: saline with Tween-80 175 % of control

O=C1CCCc2ccccc2N1
inactive: dose: 25.0 mg/kg/injection, schedule: Q01DX009 (ip), vehicle: Klucel (hydroxypropylcellulose) (HPC) 100 % of control | dose: 50.0 mg/kg/injection, schedule: Q01DX009 (ip), vehicle: Klucel (hydroxypropylcellulose) (HPC) 95 % of control | dose: 100.0 mg/kg/injection, schedule: Q01DX009 (ip), vehicle: Klucel (hydroxypropylcellulose) (HPC) 91 % of control | [7] 95 % of control | dose: 200.0 mg/kg/injection, schedule: Q01DX009 (ip), vehicle: Klucel (hydroxypropylcellulose) (HPC) 91 % of control | [8] 100 % of control | dose: 400.0 mg/kg/injection, schedule: Q01DX009 (ip), vehicle: Klucel (hydroxypropylcellulose) (HPC) 91 % of control | dose: 400.0 mg/kg/injection, schedule: Q04DX003 (ip), vehicle: Klucel (hydroxypropylcellulose) (HPC) 100 % of control
